Measurements from patent US9409983B2, “Methods and compositions involving PBEF inhibitors for lung inflammation conditions and diseases” (The Board of Trustess of the University of Illinois, priority 2009, dated 2016).
“Also recorded” adds a separate entry of the source.

Legend:
[1] = tested on: C57BL/6 mice; assay: Intratracheal rhPBEF instillation in spontaneously breathing mice (BAL, tissue albumin, cytokines, histology); format: in vivo, mouse
Description: (§1) The first VILI model was designed to produce limited lung injury (VILIa, tidal volume 30 ml/kg), thus allowing assessment of potential synergy with rhPBEF challenge. Male C57BL/6J B6 mice were anesthetized with ketamine/acepromazine, intubated and administered rhPBEF (20 μg/mouse) via an intratracheal (IT) route ˜30 min before ventilator placement (room air, tidal volume 30 ml/kg, 65 breaths/minute, 0 cm H2O PEEP) for 4 hr as previously described (Nonas et al., 2007; Moitra et al., 2007). Groups included a spontaneous breathing group (SB), a spontaneous breathing group challenged with rhPBEF (SB-rhPBEF), a high tidal ventilation group (VILIa), and a high tidal ventilation group with rhPBEF challenge (VILIa-rhPBEF) (n=4-6 all groups).
(§2) BAL fluid recovered as we previously described was used for multiple assays including total BAL protein, and BAL cell differentials (Peng et al., 2004). Tissue albumin content was assessed as previously described (Nonas et al., 2007). Cytokine levels in BAL fluid (IL-1β, IL-6, KC, MIP2, TNF-α) were analyzed by multiplex assays (Bio-Rad, Hercules, Calif., USA). BAL PBEF levels were assayed by a C-terminal ELISA (Phoenix Pharmaceuticals Inc. Belmont, Calif.) and analyzed using the SoftmaxPRO software (Molecular Devices Corp). (See Supplemental Methods).
We utilized two experimental models of ventilator-induce lung injury in these experiments. Our first approach (VILIa) utilized a VILI protocol with a tidal volume of 30 ml/kg designed to produce limited lung injury in order to allow assessment of potential synergism between delivered PBEF and mechanical ventilation-induced lung injury. Male C57BL/6J mice (8-12 wk old, 24.7±2.0 g) were weighed, anesthetized with ketamine/acepromazine, intubated using a 20 gauge catheter (Medex, Inc, Carlsbad, Calif.) and administered recombinant PBEF ([…] of water) via an intratracheal (IT) route ˜30 min before being placed on mechanical ventilation as we have previously described (Peng et al., 2004). Mice were then connected to Harvard Apparatus ventilator (Boston, Mass.) at room air, tidal volume of 30 ml/kg, 65 breaths/minute, and positive expiratory pressure (PEEP) 0 cm H2O for 4 hr. Groups of mice were randomly allocated to either the spontaneous breathing group (SB) (n=4), the spontaneous breathing challenged with IT rhPBEF group (SB-rhPBEF) (n=6), the high tidal ventilation group (VILIa) (n=6), or high tidal ventilation with rhPBEF group (VILIa-rhPBEF) (n=6). Normal saline (0.2 cc) was given via intraperitoneal injection at the beginning and 2 hours later to all ventilated mice and peak inspiratory pressure was monitored continuously. Temperature was maintained with heat blanket to all mice during experiment.
(§3) Mice underwent bronchioalveolar lavage (BAL) of both lungs with Hank's balanced salt solution (1 mL/mouse), and the recovered BAL fluid was used for assays as we have previously described (Peng et al., 2004). Total protein was measured using the Bio-Rad DC Protein Assay (Bio-Rad Laboratories, Hercules, Calif.) (Peng et al., 2004). Protein results were expressed as mg/ml to allow for comparison to other studies. Lavage samples were centrifuged at 500×g on a refrigerated micro centrifuge for 20 min. The supernatant was decanted and aliquot for protein assays. The BAL cells were resuspended in Hank's balanced salt solution and counted using a hemacytometer using standard techniques.
(§4) Re-suspended BAL cells from lung lavage were centrifuged using a Shandon Cytospin-2 at 600 RPM for 15 min, fixed by air-drying, and stained with Diff-Quik dye for differential counts (Peng et al., 2004). Stained cell slides were evaluated and differentially counted for each individual animal (lymphocyte, neutrophil or a macrophage).
(§5) BAL fluid for cytokine measurements was stored at −80° C. until analysis. […]

[2] = tested on: C57BL/6 mice; assay: rhPBEF challenge in limited ventilator-induced lung injury model (VILIa, 30 ml/kg); format: in vivo, mouse
Description: as §1, §2
We utilized two experimental models of ventilator-induce lung injury in these experiments. Our first approach (VILIa) utilized a VILI protocol with a tidal volume of 30 ml/kg designed to produce limited lung injury in order to allow assessment of potential synergism between delivered PBEF and mechanical ventilation-induced lung injury. Male C57BL/6J mice (8-12 wk old, 24.7±2.0 g) were weighed, anesthetized with ketamine/acepromazine, intubated using a 20 gauge catheter (Medex, Inc, Carlsbad, Calif.) and administered recombinant PBEF (20 μg/mouse in 1.5 μl water per gram body weight or vehicle equal volumes of water) via an intratracheal (IT) route ˜30 min before being placed on mechanical ventilation as we have previously described (Peng et al., 2004). Mice were then connected to Harvard Apparatus ventilator (Boston, Mass.) at room air, tidal volume of 30 ml/kg, 65 breaths/minute, and positive expiratory pressure (PEEP) 0 cm H2O for 4 hr. Groups of mice were randomly allocated to either the spontaneous breathing group (SB) (n=4), the spontaneous breathing challenged with IT rhPBEF group (SB-rhPBEF) (n=6), the high tidal ventilation group (VILIa) (n=6), or high tidal ventilation with rhPBEF group (VILIa-rhPBEF) (n=6). Normal saline (0.2 cc) was given via intraperitoneal injection at the beginning and 2 hours later to all ventilated mice and peak inspiratory pressure was monitored continuously. Temperature was maintained with heat blanket to all mice during experiment.
as §3, §4, §5

[3] = tested on: rat peritoneal neutrophils; assay: Transmigration and chemotaxis assay (Transwell); format: cell-based; settings: rhPBEF (10 ng/ul) or casein in lower chamber, up to 4 hours
Description: Chemotaxis of rat peritoneal neutrophils (calcein-AM) across 3 μm polycarbonate filters was assessed in response to recombinant human PBEF/visfatin (rhPBEF, PeproTech, Rocky Hill, N.J.), or casein (positive control). (See Supplemental Methods for additional details).
Neutrophils were collected from retired breeder male Harlan-Sprague Dawley rats by intraperitoneal injection of 2.5% casein (5 ml). The resulting peritoneal fluid was recovered by PBS peritoneal lavage after 18 hr, centrifuged and examined for total cell counts and cell differentiation. For chemotaxis assays, leukocytes were exposed to calcein-AM in the presence of plurionic acid for 1 hr at room temperature. The temperature was then elevated to 37° C. for 30 min to cleave the calcein AM thereby reducing the rate of calcein diffusion out of the cells. […] The receiving wells were assessed serially in a fluorescent plate reader with absorption at 494 nm and emission measured at 517 nm. Fluorescence was recorded at 5, 10, 15, 30 min and each subsequent 30 min period for up to 4 hr. Aliquots of known numbers of neutrophils were counted in separate wells at each time point to account for any quenching of the fluorescence over time.

[4] = spontaneously breathing mice, rhPBEF

rhPBEF: Recombinant human soluble PBEF/visfatin, a 52 kDa protein containing 465 amino acid residues, purchased from PeproTech
BAL IL-1β ([1]; SB-rhPBEF): 55 ± 22 pg/mL
BAL TNF-α ([1]; SB-rhPBEF): 262 ± 94 pg/mL
histologic assessment of lung tissue (hematoxylin and eosin) ([1]; SB-rhPBEF, 20 μg/mouse in 30 μl saline intratracheal): mild inflammation; also recorded: macrophage & neutrophil infiltration and edematous alveolar areas
BAL IL-6 [1, 4]: 319 ± 67 pg/mL
BAL KC [1, 4]: 1388 ± 169 pg/mL
BAL MIP-2 [1, 4]: 29026 ± 762 pg/mL
BAL IL-1β [2]: 53 ± 4 pg/mL
BAL IL-6 [2]: 957 ± 103 pg/mL
BAL KC [2]: 2310 ± 263 pg/mL
BAL MIP-2 [2]: 30480 ± 219 pg/mL
BAL TNF-α [2]: 985 ± 293 pg/mL
BAL cytospin (400×) ([2]; 20 μg rhPBEF): dramatic influx of neutrophils into the alveolar space
histologic assessment of lung tissue (hematoxylin and eosin) ([2]; intratracheal rhPBEF 30 min prior to mechanical ventilation for 4 hr): greater alveolar wall thickening, and neutrophil infiltration into the lung interstitium and alveolar space; also recorded: dramatically augmented
PMN migration across Transwell filters [3]: significant PMN migration beginning after 2 hrs; also recorded: significant PMN migration beginning at 2 hrs
